# Measured values taken from the supplement of paper PMC10307832.
# Legend:
# Experiment in all cases: relative viability (nuclei count vs DMSO), 5 days (fraction); higher = more cells survive
# [1] = compound: CS(=O)(=O)CCNCc1ccc(-c2ccc3ncnc(Nc4ccc(OCc5cccc(F)c5)c(Cl)c4)c3c2)o1 [Lapatinib] + CCNC(=O)c1noc(-c2cc(C(C)C)c(O)cc2O)c1-c1ccc(CN2CCOCC2)cc1 [Luminespib] (partner 0.01 µM)
# How it was run: (§1)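 Cells from lung cancer lines were seeded into 1536-well plates and, one day later, dosed by pin tool. Treatments were either a single drug or a fixed dose of an anchor drug with five library-drug doses (not always all listed) in √10 steps. After 5 days, nuclei were stained in a one-step fixation (final 0.05% Triton X-100, 1% formaldehyde, 1 ug/ml Hoechst) and counted on 4× images, and relative viability is the treated-to-vehicle nuclei ratio, as the median of duplicate plates.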
# [2] = compound: CS(=O)(=O)CCNCc1ccc(-c2ccc3ncnc(Nc4ccc(OCc5cccc(F)c5)c(Cl)c4)c3c2)o1 [Lapatinib] + COc1cc2c(Oc3ccc(NC(=O)C4(C(=O)Nc5ccc(F)cc5)CC4)cc3F)ccnc2cc1OCCCN1CCOCC1 [Foretinib] (partner 0.25 µM)
# How it was run: as §1
# [3] = compound: CS(=O)(=O)CCNCc1ccc(-c2ccc3ncnc(Nc4ccc(OCc5cccc(F)c5)c(Cl)c4)c3c2)o1 [Lapatinib] + NC(=O)Nc1cc(-c2cccc(F)c2)sc1C(=O)N[C@H]1CCCNC1 [AZD7762] (partner 0.2 µM)
# How it was run: as §1
# [4] = compound: CS(=O)(=O)CCNCc1ccc(-c2ccc3ncnc(Nc4ccc(OCc5cccc(F)c5)c(Cl)c4)c3c2)o1 [Lapatinib] + Nc1ncn([C@H]2C[C@H](O)[C@@H](CO)O2)c(=O)n1 [Decitabine] (partner 2 µM)
# How it was run: as §1
Cell Line,relative viability ([1]; first compound 0.02 µM),relative viability ([1]; first compound 0.06325 µM),relative viability ([1]; first compound 0.2 µM),relative viability ([1]; first compound 0.6325 µM),relative viability ([1]; first compound 2 µM),relative viability ([2]; first compound 0.02 µM),relative viability ([2]; first compound 0.06325 µM),relative viability ([2]; first compound 0.2 µM),relative viability ([2]; first compound 0.6325 µM),relative viability ([2]; first compound 2 µM),relative viability ([3]; first compound 0.06325 µM),relative viability ([3]; first compound 0.2 µM),relative viability ([3]; first compound 0.6325 µM),relative viability ([3]; first compound 2 µM),relative viability ([4]; first compound 0.06325 µM),relative viability ([4]; first compound 0.2 µM),relative viability ([4]; first compound 0.6325 µM),relative viability ([4]; first compound 2 µM),relative viability ([3]; first compound 0.02 µM),relative viability ([4]; first compound 0.02 µM)
HOP-62,0.839,0.949,0.932,0.869,1.01,1.14,1.16,1.03,1.09,1.13,0.526,0.669,0.501,0.568,0.224,0.21,0.203,0.219,,
LCLC-103H,0.954,0.82,0.877,0.891,0.852,0.849,0.744,0.753,0.835,0.712,0.575,0.791,0.836,0.727,0.657,0.652,0.775,0.666,0.61,0.764
Calu-6,,,,,,0.86,0.852,0.862,0.878,0.904,,,,,,,,,,
NCI-H1650,0.19,0.202,0.198,0.2,0.2,1,1.08,1.03,1.01,0.684,,,,,0.509,0.418,0.371,0.503,,0.362
NCI-H1703,,,,,,0.305,0.347,0.296,0.299,0.388,0.119,,0.121,0.113,,,,,,
LK-2,,,0.174,0.211,0.177,,,1.39,1.42,1.07,,0.379,,0.636,,0.331,0.363,0.411,0.393,0.196
LCLC-97TM1,,,0.676,0.765,0.875,,,0.843,0.973,1.02,,0.178,0.224,0.259,0.232,0.222,0.268,0.268,,
NCI-H1793,,0.33,0.174,0.158,0.143,,0.5,0.497,0.524,0.422,0.355,0.304,0.437,0.186,0.404,0.418,0.424,0.44,,
SW 900,,0.176,0.17,0.164,0.175,,0.808,0.659,0.781,0.734,0.549,0.549,0.591,0.466,0.392,0.428,0.44,0.425,,
SK-MES-1,0.738,0.665,0.625,0.482,0.326,0.826,0.499,0.969,0.908,0.516,,,,,0.364,0.37,0.306,0.311,,0.429
NCI-H2023,0.696,0.593,0.723,0.751,0.619,,,0.685,0.437,0.357,,,,,0.229,0.224,0.235,0.223,,0.22
NCI-H1792,,,0.413,0.403,0.255,,,,,,,0.568,0.665,0.365,,0.555,0.509,0.388,,
NCI-H661,0.887,0.925,0.814,0.807,0.584,0.972,0.926,0.856,0.666,0.62,,,,,0.474,0.489,0.387,0.423,,0.48
NCI-H1915,,0.847,0.832,0.707,0.848,,1.06,1.12,1.08,1.09,0.71,0.685,0.705,0.592,0.284,0.248,0.253,0.255,,
EPLC-272H,,,0.44,0.205,0.359,,,0.542,0.687,0.325,0.191,0.228,0.175,0.252,0.361,0.352,0.34,0.366,,
ChaGo-K-1,0.636,0.448,0.603,0.563,0.57,0.907,0.936,0.879,0.951,0.835,0.805,0.926,0.942,0.882,0.562,0.542,0.52,0.447,0.703,0.528
NCI-H3122,0.103,0.0758,0.0797,0.0807,0.0854,0.944,0.901,0.96,0.872,0.928,0.9,0.999,1.04,0.973,0.364,0.376,0.456,0.421,0.959,0.426
IA-LM,,,,,,1.08,1.13,1.36,1.03,1.16,,,,,,,,,,
EMC-BAC-2,1.09,0.998,1.19,1.06,1.08,0.953,0.844,0.969,0.86,0.857,0.938,1.05,1.13,1.18,0.864,,0.945,0.956,,
NCI-H522,,1.09,,1.03,0.794,,,,,,0.731,0.845,1.07,0.612,0.645,0.647,0.683,0.664,,
NCI-H1734,0.22,0.196,0.189,0.186,0.174,0.842,0.694,0.804,0.888,0.779,0.42,0.587,0.507,0.541,0.435,0.506,0.552,0.432,,
LC-2-ad,,0.865,1.2,0.988,0.942,,0.655,0.872,0.769,0.567,0.562,0.768,0.684,0.552,0.807,0.715,0.834,0.692,,
